Results as given in patent US8642622B2, “Piperidinyl compound as a modulator of chemokine receptor activity” (Bristol-Myers Squibb Company, priority 2010, dated 2014).

Experiments:
[1] = target: T1, Human PXR (Homo sapiens, UniProt O75469); assay: PXR transactivation assay (HepG2, CYP3A-Luc reporter); format: cell-based
T1 construct: expressed in transfected cells; host or cells: HepG2
T1 sequence (O75469 1-434): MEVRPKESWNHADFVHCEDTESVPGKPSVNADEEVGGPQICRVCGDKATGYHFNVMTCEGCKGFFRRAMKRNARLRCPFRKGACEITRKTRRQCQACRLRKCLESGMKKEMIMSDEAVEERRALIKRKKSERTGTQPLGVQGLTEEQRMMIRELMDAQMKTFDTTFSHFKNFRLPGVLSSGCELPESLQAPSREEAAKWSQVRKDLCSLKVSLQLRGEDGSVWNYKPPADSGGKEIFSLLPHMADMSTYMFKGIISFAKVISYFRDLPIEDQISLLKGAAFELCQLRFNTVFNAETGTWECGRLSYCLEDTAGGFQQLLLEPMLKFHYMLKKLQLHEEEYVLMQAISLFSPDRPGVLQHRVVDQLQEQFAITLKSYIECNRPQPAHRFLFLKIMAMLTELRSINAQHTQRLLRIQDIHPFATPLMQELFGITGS
Text: The cell culture medium used is DMEM. […] Charcoal/dextran treated fetal bovine serum (FBS) was purchased from Hyclone (Logan, Utah). HepG2 cells were obtained from ATCC (Manassas, Va.). Human PXR-pcDNA3 and luciferase reporter containing CYP3A4 promoter, CYP3A-Luc, were generated at Bristol-Myers Squibb. White tissue culture (TC)-surface 384-well plates were purchased from Perkin Elmer (Boston, Mass.). Luciferase substrate (Steady-Glo) was purchased from Promega (Madison, Wis.). Control compounds rifampicin, mifepristone, and sulfinpyrazone were purchased from Sigma (St. Louis, Mo.).
Culture of HepG2 cells is performed in T175 flasks using DMEM containing 10% FBS. The transfection mixture contains 1 μg/mL of PXR-pcDNA3 plasmid DNA, 20 μg/ml of Cyp3A-Luc plasmid DNA, 90 μL/mL of Lipofectamine 2000, and serum-free medium. After incubating at room temperature for 20 minutes, the transfection mixture (1 ml per flask) is applied to the cells in fresh medium (20 mL per flask), and flasks incubated at 37° C. (5% CO2) overnight.
The flasks are then tapped vigorously to break up cell aggregates. After the addition of 8 mL of DMEM containing 5% charcoal/dextran-treated FBS, the entire mixture is transferred to conical tubes. Cells are then centrifuged at 1000 rpm for 5 minutes. Cell pellets are resuspended to a final count of ˜7×10^6 cells/mL in freezing media (DMEM containing 20% serum and 10% DMSO). The cell suspension is aliquoted into 15-mL polypropylene tubes, 5 mL per tube. Cells are slowly frozen by placing in a Styrofoam-insulated container at −80° C. overnight. Vials are transferred to an Ultracold (−140° C.) freezer after 24 hours for long-term storage.
Vials of cryopreserved cells are thawed rapidly in a warm water bath for five minutes. Cells are pooled and diluted to 50 mL in a 50-mL conical vial. The thawed cells are centrifuged at 1500 rpm for 5 minutes to collect the cells and the supernatant discarded. Cells are then resuspended in fresh Media II (DMEM containing 5% charcoal/dextran-treated FBS, 1% Penicillin/Streptomycin, 100 μM Non-essential Amino Acids, 1 mM Sodium Pyruvate, and 2 mM L-Glutamine), counted using the Guava Cell Counter, and diluted to 1.6×10^5 cells/ml in the same media.
Fifty microliters of cell mixture is added to wells in columns 1-23 of white tissue-culture treated 384-well plates containing 0.25 μL of test compound dissolved in 100% DMSO. Fifty microliters of Media II is added to wells in column 24. The plates are incubated at 37° C. (5% CO2) for 24 hours, then 5 μL of Alamar Blue reagent (Trek Diagnostics, Cat #00-100) is added to each well. Plates are then incubated an additional two hours at 37° C., 5% CO2 and then one hour at room temperature. […] After the fluorescence is measured, 25 μL of luciferase substrate (Steady-Glo, Promega) is added to each well. The plates are incubated for fifteen minutes at room temperature, after which the luminescence is read on a PheraStar (BMG Labtech) plate reader.
Rifampicin (10 μM), a well-known agonist of PXR, is included in each plate as an internal standard and positive control. The data is then expressed as percent control (% CTRL), where the control signal is the signal from the 10 μM rifampicin and the blank signal is that from the DMSO vehicle. % CTRL=((Compound signal−Blank signal)/(Control signal−Blank signal))*100
The EC50 is defined as the concentration corresponding to half of the maximal response derived from the fitted 20-point curve as determined using a four-parameter logistic regression model. Additionally, compounds may also be reported as EC20 or EC60.

[2] = Human liver microsomal metabolism, Assay Conditions A; format: in vitro ADME; details: 0.5 μM compound, 10 minutes, 37° C.
Description: Test compound is received as a 3.5 mM stock solution in 100 percent DMSO. Compound is diluted to create a 50 μM acetonitrile (ACN) solution containing 1.4% DMSO, which is then used as a 100× stock for incubation with microsomes. Each compound is tested in duplicate separately in each of three species in the Metabolic Stability-Human, Rat, and Mouse assay suite or as individual species in the Metabolic Stability-Dog or Metabolic Stability-Monkey suites. Compound, NADPH and liver microsome solutions are combined for incubation in three steps:
152 μL of liver microsome suspension, protein concentration of 1.1 mg/mL in 100 mM NaPi, pH 7.4, 6.6 mM MgCl2 buffer, is pre-warmed at 37° C.
• 1) 1.7 μL of 50 μM compound (98.6% ACN, 1.4% DMSO) is added to the same tube and pre-incubated at 37° C. for 5 minutes. • 2) The reaction is initiated by the addition of 17 μL of pre-warmed 10 mM NADPH solution in 100 mM NaPi, pH 7.4. • 3) Reaction components are mixed well, and 75 μL are immediately transferred into 150 μl quench/stop solution (zero-time point, To). Reactions are incubated at 37° C. for 10 minutes and then an additional 75 μL aliquot is transferred into 150 μL quench solution. Acetonitrile containing 100 μM DMN (a UV standard for injection quality control), is used as the quench solution to terminate metabolic reactions. • 4) Quenched mixtures are centrifuged at 1500 rpm (˜500×g) in an Allegra X-12 centrifuge, SX4750 rotor (Beckman Coulter Inc., Fullerton, Calif.) for fifteen minutes to pellet denatured microsomes. A volume of 90 μL of supernatant extract, containing the mixture of parent compound and its metabolites, is then transferred to a separate 96-well plate for UV-LC/MS-MS analysis to determine the percent of parent compound that is remaining in the mixture.

PXR EC20 ([1]; reported as EC20)	Human Liver Microsomal Metabolism % remaining (Assay Conditions A) [2]	SMILES	PXR activation (in vitro screen, in words) [1]	EC50 ([1]; HepG2, relative to 10 μM rifampicin)
–	–	CC(C)[C@@H](NC(=O)[C@@H]1CCC(F)(F)C1)C(=O)N1CC[C@](O)(c2ccc(Cl)cc2)[C@@](C)(O)C1 [Compound I, (R)—N—((R)-1-((3S,4S)-4-(4-chlorophenyl)-3,4-dihydroxy-3-methylpiperidin-1-yl)-3-methyl-1-oxobutan-2-yl)-3,3-difluorocyclopentanecarboxamide]	not a significant activator	> 50 µM
1.9 (EC20) μM	13% (A)	CC(C)COC(=O)N[C@@H](C(=O)N1CC[C@](O)(c2ccc(Cl)cc2)C(C)(C)C1)C(C)C [Example 1083]	–	–
